Holding throughout (type): cell-based, Human Cytomegalovirus
Assay [1] has as its system TB40-BACKL7-UL32EGFP-UL 100mCherry. Description: Attachment of fluorescently tagged viral particles to HFF. The following applies: HFF preincubated with peptide 1 h, 6 h after infection, data not shown. The method, then: In additional experiments, […] (encoding for pp150) was GFP (green fluorescence protein)-tagged, UL100 (encoding for gM) was mCherry-tagged. This allowed discrimination between enveloped particles, which were EGFP and mCherry-positive and appeared yellow, and non-enveloped particles, which were only EGFP-positive and appeared green.
HFF were preincubated with peptide in the corresponding concentration 1 h at 37° C. and then infected TB40-BACKL7-UL32EGFP-UL 100mCherry. After 6 h of incubation, cells were fixed and stained with DAPI.

In a further assay the test system is HCMV TB40/E-ΔUL16-eGFP. Description: Infection assay on different cell types (HFF, ARPE-19, THP-1) with TB40E-ΔUL16-EGFP, IE+/DAPI+. The conditions noted are these: 40 h. The method, then: For the infection assays, the cells were sown in 96-well plates. Human foreskin fibroblasts (HFF) and ARPE-19 cells (Adult Retinal Pigment Epithelial cell line-19) were seeded with 10 000 cells in 200 μl medium per well, macrophages with 20 000 cells in 200 μl medium per well and THP with 50 000 cells in 200 μl per well. The cells were incubated overnight at 37° C. and 5% CO2 and treated the following day. A medium change to P/S-free medium was performed to avoid interaction between the antibiotics used and the peptide sequences. Afterwards the corresponding peptides were added in different concentrations and immediately afterwards the virus, the final volume was 100 μl per well. The virus of the strain TB40/E-ΔUL16-eGFP was used. TB40-ΔUL16-eGFP is a derivative of the strain TB40, in which the majority of the open reading frame UL16 has been replaced by the open reading frame of eGFP, essentially as described in detail for a homologous mutant of strain AD169 (Tischer et al., “Two-step red-mediated recombination for versatile high-efficiency markerless DNA manipulation in Escherichia coli”, Biotechniques, (2006), 40(2):191-7). […] The required volume of the virus stock was calculated using the titer according to the following formula: […]

For another assay, the system named is clinical HCMV isolates. Description: Infection assays with clinical isolates on HFF. The method, then:
The antiviral activity of HD5 (1-9) (SEQ ID No. 1) in concentrations from 1.56 μM to 100 μM against infection with clinical HCMV isolates was investigated on HFF. In addition to the laboratory-adapted strain TB40/E-ΔUL16-eGFP, which served as reference strain, a breast milk-derived strain, an amniotic fluid-isolated strain and a multidrug-resistant viral isolate from leukocytes of a recipient after the third stem cell transplantation were used. The therapy-naïve strain from cell free milk whey (H1241-2016) was derived from a […] of a preterm infant 10 weeks postpartum during end of viral reactivation. The amnion fluid derived virus strain (H2497-2011) was isolated following termination of pregnancy based on severe fetal brain damage. The multidrug resistant CMV isolate (H815-2006) is already described (Gohring et al., “Dynamics of coexisting HCMV-UL97 and UL54 drug-resistance associated mutations in patients after haematopoietic cell transplantation”, J. Clin. Virol. 57(1):43-49, 2013). […] All viral isolates were primarily HFF-adapted and propagated in vitro with at least 10 passages to get TCID values of cell free viral supernatants of […].
Next, a peptide of the invention, i.e. HD5 (1-9) was tested on clinical HCMV isolates. 10 000 HFF were seeded into each well of a 96-well-plate containing 200 μl of medium. Cells were incubated overnight at 37° C. and 5% CO2. Next day medium was changed to medium without P/S. Cells were infected with different clinical HCMV isolates (MOI 0,2) and treated with peptide in concentrations from 1.56 μM to 100 μM in a volume of 100 μl. After 40 h of incubation cells were fixed with 2% PFA in PBS and permeabilised with 90% methanol in H2O. Afterwards an antibody staining for IE-antigens was performed and nuclei were stained with DAPI. Infection rate was analysed (IE+/DAPI+, normalized to medium control, n=1).
HCMV TB40/E is a lab-adapted strain that might differ from primary HCMV isolates in terms of cellular tropism, infectivity or cytopathic properties. […]

Residues, ends and D or L forms follow the SMILES beside them.

`C[C@H](N)C(=O)N[C@H](C(=O)N[C@@H](CS)C(=O)N[C@@H](Cc1ccc(O)cc1)C(=O)N[C@@H](CS)C(=O)N[C@@H](CCCNC(=N)N)C(=O)N[C@H](C(=O)NCC(=O)N[C@@H](CCCNC(=N)N)C(=O)O)[C@@H](C)O)[C@@H](C)O` [HD5 (1-9), ATCYCRTGR] (H-ATCYCRTGR-OH; N-terminus and C-terminus assumed): the “attachment of viral particles” value in assay [1] is given as “blocks the attachment of viral particles”. Besides, the “concentration from which HCMV infection is inhibited” value in the assay on HCMV TB40/E-ΔUL16-eGFP was at least 50 µM. Further, the “inhibition of HCMV infection” value in the assay with clinical HCMV isolates (100 μM in HFF, MOI 0.2 and 0.1) was “inhibited HCMV infection efficiently”. Also, the “concentration at which inhibition of infection with all clinical isolates starts” value in the assay with clinical HCMV isolates (HFF, 40 h) was at least 50 µM. In addition, the “inhibition of infection with primary isolates (amniotic fluid, breast milk, multiresistant leukocyte isolate)” value in the assay with clinical HCMV isolates (HFF, MOI 0.2 and 0.1) is listed as “sensitive towards inhibition”.

These data come from patent US20220213156A1, “Peptides for use in therapy or prophylaxis of Herpesviridae-infections” (priority 2019, published 2022).
